Measurements taken from patent publication US20210290742A1, “METHODS OF USING LYSINE DEACETYLASE (KDAC) INHIBITION TO GENERATE ANTIGEN SPECIFIC MEMORY T CELL RESPONSES FOR DURABLE IMMUNOTHERAPY” (ARIZONA BOARD OF REGENTS ON BEHALF OF THE UNIVERSITY OF …, priority 2018, published 2021).

Assays:
[1] = tested on: TCR proximal signaling (Lck, Zap70, PKCθ phosphorylation); experiment: Western blot of early TCR signaling proteins (p-Lck, p-Zap70, p-PKCθ) in antigen stimulated CD8+ T cells; format: cell-based, murine; details: TSA pre-treatment 30 minutes 2.5 ng/ml, vs Ag alone
Procedure: (§1) Lysates from naïve OT-1 cells served as a control (N). Cell lysates were prepared at 0, 15, 60, or 120 minutes post-stimulation and analyzed for p-LcK^Tyr394, p-Zap70, p-PKCe and β-tubulin levels by Western blot analysis. […] The normalized values at indicated time-points are plotted. […] Naïve (shaded histograms, antigen alone (solid line histogram) and antigen plus TSA (histogram indicated by arrow). Error bars are the standard error of mean (SEM) values obtained from three independent experiments. Naïve OT-1 T cells were pre-treated with TSA for 30 minutes and then stimulated with Ag (microspheres bearing H-2K^b/cognate 8 amino acid peptide/B7-1), (h: hour: N: Naïve; A: Ag; A+T: Ag+TSA).
(§2) Examples 1-0 were obtained from a murine transgenic model, from which in vitro stimulated naïve cells were isolated from TCR transgenic mice (OT-1/Rag -/-). In brief, the CD8+ T cells obtained from nave TCR transgenic mice (OT-1/Rag -/-) mice were stimulated in vitro with latex microspheres on which major histocompatibility complex (MHC) Class I (H-2Kb) dimers bearing 10 nM of cognate peptide (Ag) were immobilized, along with 1 μg/ml of recombinant murine […] (co-stimulation) and 2 ng/ml of rmIL-12 (cytokine) (FIG. 1).
(§3) Western blot analysis was conducted to compare the level of phosphorylation of early TCR signaling proteins, Lck, Zap70, and PKCθ, by TSA pre-treatment of antigen stimulated CD8+ T cells. […] Since, the energy sensitive kinase mTORC1 serves as an integrative node for extracellular signals that initiate naïve CD8+ T cells activation, the mTORC1 activity was assessed by measuring the phosphorylation state of the mTORC1 target ribosomal […] (p-S6) by intracellular flow cytometry (FIG. 3D).

[2] = tested on: antigen stimulated CD8+ T cells; experiment: Clonal expansion of antigen stimulated CD8+ T cells; format: cell-based, murine; details: TSA 2.5 ng/ml
[3] = tested on: antigen stimulated CD8 High and CD8 Low T cells; experiment: mTORC1 activity, cell cycle and proliferation of FACS sorted CD8 High and CD8 Low cells at 48 h; format: cell-based, murine; details: total 48 hours
Procedure: Gating strategies and growth profiles of antigen alone (Ag) or TSA induced antigen (Ag+TSA) at 48 hours are shown for CD8 High and CD8 Low populations. Ag and Ag+TSA CD8+ T-cell cultures were FACS sorted on the basis of CD8α expression. […] Solid line histograms represent Ag or Ag+TSA CD8 or High cells and shaded histograms are unstimulated naïve CD8+ T cells. […] Solid line histograms represent Ag or Ag+TSA CD8 Low or High cells and shaded histograms are unstimulated naïve CD8+ T cells. […] Error bars are the standard error of mean (SEM) values obtained from three independent experiments. (h: hour; hi: high; lo: low).
as §2
To determine the implications of the TSA-mediated tuned percentage of CD8 expression on the growth profile, of these cells, the 24 hours Ag and Ag # TSA CD8+ T cells were separated by FACS sorting on the basis of their CD8 expression (FIGS. 5A-5H).

[4] = tested on: IL-2 gene expression in Human Jurkat cells; experiment: qPCR analysis of antigen-induced IL-2 gene expression in Jurkat T cells; format: cell-based; details: anti-CD3/anti-CD28 stimulated Jurkat T cells, 30 min to 16 h, presence vs absence of TSA
Procedure: IL-2 gene expression is shown in FIG. 11 in stimulated Jurkat T cells in presence or absence of ISA. Cells were incubated on the anti-CD3/anti-CD28 (stimulatory) or anti-CD45 (non-stimulatory) antibody coated chamber slides for 30 min to 16 h, then the total RNA was extracted and performed qPCR analysis of 1L-2 expression. Data shown are the mean fold change of ±SD of three independent experiments. Error bars represent standard deviations. *, statistically significant (p<0.05) and **, p=0.0071 with respect to the values obtained in the presence of TSA. ns, non-significant. (h: hour).
(§4) Examples 9-10 were obtained from human Jurkat cell line. Jurkat T cells were […]

[5] = tested on: antigen stimulated CD8+ T cells; experiment: CD8 expression asymmetry in antigen stimulated CD8+ T cells at 24 h; format: cell-based, murine; details: TSA pre-treated, within 24 h, vs Ag alone
Procedure: Results shown are representative of three independent experiments with identical outcomes. (h: hour; hi high; lo; low).
as §2
Accumulating evidence implicates a deterministic role for cellular asymmetry in antigen induced CD8+ T cells division and functional maturation. The KDACi-mediated reduced TCR signaling and mTOR activity were examined to determine their effect on the induction of inherent asymmetry produced in antigen stimulated CD8+ T cells (FIGS. 4A-4D). […] This could be attributed to the lower threshold of early activation/TCR signaling cues available to the TSA primed CD8+ T cells.

[6] = tested on: Human Jurkat T cells; experiment: Early CD69 expression on stimulated Jurkat T cells; format: cell-based; details: TSA 10 ng/ml, anti-CD3/anti-CD28 stimulation, 2 and 4 hours
Procedure: Human Jurkat T Cells were incubated with anti-CD3/anti-0028 (Ag) in the presence or absence of TSA 10 ng/ml) or anti-CD45/CD28 (unstimulated) antibody mated chamber slides for indicated time points. The cells were harvested, counted and stained for CD69. […] FIGS. 10C and 10D show the percentage (% CD69) and their relative Mean Fluorescence intensity (MFI) at 2 and 4 hours, respectively (h: hour).
as §4

[7] = tested on: naïve CD8+ (OT-I) T cells; experiment: Antigen-induced early activation of naïve CD8+ (OT-I) T cells, CD69/CD62L surface staining by flow cytometry; format: cell-based, murine; details: pre-treatment with TSA 2.5 ng/ml, antigen stimulation 4 hours, vs antigen alone
Procedure: KDAC inhibition with TSA at 2.5 ng/ml differentially regulates early activation phenotype of antigen stimulated CD8+ T cells. […] Naïve cells (control) are presented in shaded histograms, and antigen stimulated cells (Ag) are shown by the solid line histogram. […] The results shown are representative of five independent experiments with identical outcomes. (N: Naîve; A; Ag; A+T: Ag+TSA).
(§5) Examples 1-0 were obtained from a murine transgenic model, from which in vitro stimulated naïve cells were isolated from TCR transgenic mice (OT-1/Rag -/-). […]
Cognate antigen presented by MHC Class 1 to irate CD8+ T cells in the context of co-stimulation and cytokine leads to rapid (2-4 hours) increases in CD69 expression and decreases in CD62L, which indicate antigen induced early T cell activation response. To characterize early activation of T cells, naïve CD8+(OT-I) T cells were reacted with antigen (Ag; latex microspheres bearing H-2Kb-Fc+/8 amoni acid cognate peptide/rmB7-1) in vitro for 4 hours, cell surface was stained for […] and CD69 expression and evaluated by flow cytometry. […]

[8] = tested on: mTORC1; experiment: mTORC1 activity by intracellular flow cytometry of pS6K in antigen stimulated CD8+ T cells; format: cell-based, murine; details: TSA pretreatment, 4 and 8 hours post-antigen stimulation of naïve OT-1 T cells
Procedure: as §1, §5, §3

## CC(/C=C/C(=O)NO)=C\[C@@H](C)C(=O)c1ccc(N(C)C)cc1 [TSA, Trichostatin A]
[1]; 60 minutes
  phosphorylation of Zap70: reduction
[1]; 120 minutes
  phosphorylation of PKCθ: reduction
[1]; by 15 minutes
  phosphorylation of Lck: dampened
[2]
  clonal expansion: reduces clonal expansion
[3]; Ag+TSA CD8 Hi vs Ag alone CD8 Hi
  mTORC1 activity (S6Kp) in CD8 Hi cells: higher
[3]; Ag+TSA CD8 High vs Ag CD8 Hi
  cell cycle phase of CD8 High cells: enter S phase, comparable to the Ag CD8 Hi cells
[3]; Ag+TSA CD8 Low vs Ag CD8 Low
  cell cycle phase of CD8 Low cells: retained in the G0-G1 phase of cell cycle and do not enter the S phase
  mTORC1 activity (S6Kp) in CD8 Low cells: reduced
[4]
  IL-2 gene expression: reduces IL-2 gene expression
[5]
  proportion of cells with increased expression of CD8: lesser proportion of cells to have increased expression of CD8 as compared to Ag alone
[6]
  early antigen stimulation (CD69 expression): dampens early antigen stimulation of Jurkat T cells
[7]
  CD62L shedding: increases CD62L shedding
  CD69 expression: reduces antigen dose dependent CD69 expression
[8]
  mTORC1 activity (S6Kp): dampened mTORC1 activity
